The record followed here is patent publication US7910576B2, “Pyrrole derivatives as P2Y12 antagonists” (Sanofi-Aventis, priority 2007, dated 2011).

The structures appear in SMILES notation.

The experiment deals with T1, human P2Y12 receptor (Homo sapiens, UniProt Q9H244).
T1 construct: expressed in transfected cells; host or cells: Chinese Hamster Ovary (CHO) cells, membrane preparation
T1 sequence (Q9H244 whole entry): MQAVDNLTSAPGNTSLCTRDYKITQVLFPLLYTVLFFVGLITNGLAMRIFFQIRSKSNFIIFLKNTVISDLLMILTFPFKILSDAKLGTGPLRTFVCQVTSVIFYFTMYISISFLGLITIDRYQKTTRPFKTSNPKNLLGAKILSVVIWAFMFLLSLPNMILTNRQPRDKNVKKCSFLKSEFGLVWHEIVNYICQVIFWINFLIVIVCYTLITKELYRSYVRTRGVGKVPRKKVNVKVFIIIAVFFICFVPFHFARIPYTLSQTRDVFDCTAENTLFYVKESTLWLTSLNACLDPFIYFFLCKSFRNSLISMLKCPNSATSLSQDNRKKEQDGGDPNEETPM
Briefly: Human P2Y12 recombinant cell membrane binding assay. The following applies: competition against 33P 2MeS-ADP; membranes of CHO cells with recombinant human P2Y12 receptor; read-out: inhibition MeSADP binding P2Y12, IC 50. Here is the method: Human P2Y12 Recombinant Cell Membrane Binding Assay
The ability of a test compound to bind to the P2Y12 receptor was evaluated in a recombinant cell membrane binding assay. In this competitive binding assay, the test compound competed against a radiolabeled agonist for binding to the P2Y12 receptor, expressed on the cell membrane. Inhibition of binding of the labeled material was measured and correlated to the amount and potency of the test compound. This binding assay is a modification of the procedure described by Takasaki, J. et. al, Mol. Pharmacol., 2001, Vol. 60, pg. 432.
As source of P2Y12, a membrane preparation was prepared from Chinese Hamster Ovary (CHO) cells with recombinant expression of the human P2Y12 receptor according to standard procedures.
To a 96-well microtiterplate the following were added: a) 24 μl of assay buffer (10 mM HEPES, 138 mM NaCl, […] KCl, 12 mM NaHCO3, 1 mM EDTA-Na, 0.1% BSA, pH 7.4) b) 1 μL compound in DMSO c) 50 μL P2Y12 CHO membrane (20 μg/ml) and after 15 min at RT d) 25 μL of 1.61 nM ^33P 2MeS— ADP (Perkin Elmer NEN custom synthesis, specific activity ˜2100 Ci/mmol) made in assay buffer.
After 20 min incubation at RT samples were transferred to 96-well microtiter filterplates (Millipore HTS GF/B), pre-wetted for 20 min with 300 μL of stop buffer (10 mM HEPES, 138 mM NaCl pH 7.4) and then filtered through completely with a Millipore plate vacuum. Next, wells were washed four times with 400 μl/well of stop buffer on a plate vacuum. The plate was disassembled and allowed to air dry overnight with the filter side up over night. The filter plates were snapped into adapter plates and 0.1 mL of Microscint 20 Scintillation Fluid (Perkin Elmer #6013621) was added to each well. The top of the filterplate was sealed with plastic plate covers. The sealed filterplate were incubated 2 hours at room temperature. A Microbeta Scintillation Counter was used to measure counts. The binding of compound is expressed as a % inhibition of specific binding, defined by subtraction of the background with 1 mM ADP. Compounds were diluted as 10 mM DMSO stocks and tested in a four-point, five-fold dilution series run in triplicate beginning at 10 μM, final concentration. Data were analyzed using a four-parameter curve fit with a fixed minimum and maximum experimentally defined as the average positive and negative controls on each plate.
Turning to `CCOC(=O)c1cccc(N2CCN(C(=O)C(=O)c3cc(-c4ccccc4)[nH]c3C)CC2)c1` [Example 33, 3-{4-[2-(2-Methyl-5-phenyl-1H-pyrrol-3-yl)-2-oxo-acetyl]-piperazin-1-yl}-benzoic acid ethyl ester], the IC50 amounted to 170 nM. With `Cc1[nH]c(-c2ccccc2)c(/C=C/C(=O)O)c1C(=O)C(=O)N1CCN(c2cccc(C(F)(F)F)c2)CC1` [Example 71, (E)-3-(5-Methyl-4-{2-oxo-2-[4-(3-trifluoromethyl-phenyl)-piperazin-1-yl]-acetyl}-2-phenyl-1H-pyrrol-3-yl)-acrylic acid], the IC50 was 30 nM. To `Cc1[nH]c(-c2ccccc2)cc1C(=O)C(=O)N1CCC(C(=O)c2cccc(Cl)c2)CC1` [Example 52, 1-[4-(3-Chloro-benzoyl)-piperidin-1-yl]-2-(2-methyl-5-phenyl-1H-pyrrol-3-yl)-ethane-1,2-dione] belongs 520 nM. The value for `Cc1[nH]c(-c2ccccc2)cc1C(=O)C(=O)N1CCC(C(=O)c2ccc(Br)cc2)CC1` [Example 51, 1-[4-(4-Bromo-benzoyl)-piperidin-1-yl]-2-(2-methyl-5-phenyl-1H-pyrrol-3-yl)-ethane-1,2-dione] was 710 nM; that for `Cc1[nH]c(-c2ccccc2)cc1C(=O)C(=O)N1CCN(c2cccc(C(F)(F)F)c2)CC1` [Example 1, 1-(2-Methyl-5-phenyl-1H-pyrrol-3-yl)-2-[4-(3-trifluoromethyl-phenyl)-piperazin-1-yl]-ethane-1,2-dione] was 500 nM; that for `Cc1[nH]c(-c2ccccc2)cc1C(=O)C(=O)N1CCN(c2ccc(Cl)c(C(F)(F)F)c2)CC1` [Example 10, 1-[4-(4-Chloro-3-trifluoromethyl-phenyl)-piperazin-1-yl]-2-(2-methyl-5-phenyl-1H-pyrrol-3-yl)-ethane-1,2-dione] was 700 nM.
